Data as given in ChEMBL document CHEMBL5505975, “Design, synthesis and biological evaluation of CDC20 inhibitors for treatment of triple-negative breast cancer” (Eur J Med Chem, 2024).
Calls of active or inactive are those of the source. No cut-off for these calls is given here.

Experiments:
MCF7 = assay: Antiproliferative activity against human MCF7 cells assessed as reduction in cell viability incubated for 96 hrs by MTT assay; conditions: MCF7, 96 h
MDA-MB-231 [1] = assay: Antiproliferative activity against human MDA-MB-231 cells assessed as reduction in cell viability incubated for 96 hrs by MTT assay; conditions: MDA-MB-231, 96 h
MDA-MB-231 [2] = assay: Cell cycle arrest in human MDA-MB-231 cells assessed as S phase cells at 20 uM incubated for 24 hrs by PI staining based flow cytometric analysis (reference value: 28.7%); type: functional
MDA-MB-231 [3] = assay: Cell cycle arrest in human MDA-MB-231 cells assessed as G2 phase cells at 20 uM incubated for 24 hrs by PI staining based flow cytometric analysis (reference value: 14.6%); type: functional
MDA-MB-231 [4] = assay: Cell cycle arrest in human MDA-MB-231 cells assessed as S phase cells at 20 uM incubated for 48 hrs by PI staining based flow cytometric analysis (reference value: 28.7%); type: functional
MDA-MB-231 [5] = assay: Cell cycle arrest in human MDA-MB-231 cells assessed as G2 phase cells at 20 uM incubated for 48 hrs by PI staining based flow cytometric analysis (reference value: 14.6%); type: functional
MDA-MB-231 [6] = assay: Cell cycle arrest in human MDA-MB-231 cells assessed as G1 phase cells at 20 uM incubated for 72 hrs by PI staining based flow cytometric analysis (reference value: 56.7%); type: functional
MDA-MB-231 [7] = assay: Cell cycle arrest in human MDA-MB-231 cells assessed as S phase cells at 20 uM incubated for 72 hrs by PI staining based flow cytometric analysis (reference value: 28.7%); type: functional
MDA-MB-231 [8] = assay: Cell cycle arrest in human MDA-MB-231 cells assessed as G1 phase cells at 5 uM incubated for 48 hrs by PI staining based flow cytometric analysis (reference value: 76.7%); type: functional
MDA-MB-231 [9] = assay: Cell cycle arrest in human MDA-MB-231 cells assessed as G2 phase cells at 5 uM incubated for 48 hrs by PI staining based flow cytometric analysis (reference value: 7.3%); type: functional
MDA-MB-231 [10] = assay: Cell cycle arrest in human MDA-MB-231 cells assessed as S phase cells at 10 uM incubated for 48 hrs by PI staining based flow cytometric analysis (reference value: 16.0%); type: functional
MDA-MB-231 [11] = assay: Cell cycle arrest in human MDA-MB-231 cells assessed as G2 phase cells at 20 uM incubated for 48 hrs by PI staining based flow cytometric analysis (reference value: 7.3%); type: functional
MDA-MB-231 [12] = assay: Induction of autophagy in human MDA-MB-231 cells assessed as appearance of ring shaped aggregates at 5 to 20 uM incubated for 48 hrs by DAPI staining based immunofluorescence analysis; type: functional, cell-based; conditions: dose 5-20 µM
MDA-MB-231 [13] = assay: Induction of autophagy in human MDA-MB-231 cells assessed as decrease in P62 expression level incubated for 48 hrs by Western blot analysis; type: functional, cell-based; conditions: dose 5-20 µM
MDA-MB-231 [14] = assay: Induction of autophagy in human MDA-MB-231 cells assessed as increase in beclin-1 expression level incubated for 48 hrs by Western blot analysis; type: functional, cell-based; conditions: dose 5-20 µM
MDA-MB-231 [15] = assay: Induction of apoptosis in human MDA-MB-231 cells assessed as late apoptotic cells at 2.5 uM incubated for 48 hrs by Annexin V-FITC/PI staining based flow cytometric analysis (reference value: 1.06%); type: functional
MDA-MB-231 [16] = assay: Induction of apoptosis in human MDA-MB-231 cells assessed as viable cells at 10 uM incubated for 48 hrs by Annexin V-FITC/PI staining based flow cytometric analysis (reference value: 95.10%); type: functional; conditions: read-out: Activity
MDA-MB-231 [17] = assay: Induction of apoptosis in human MDA-MB-231 cells assessed as early apoptotic cells at 10 uM incubated for 48 hrs by Annexin V-FITC/PI staining based flow cytometric analysis (reference value: 2.25 %); type: functional
MDA-MB-231 [18] = assay: Induction of apoptosis in human MDA-MB-231 cells assessed as necrotic cells at 10 uM incubated for 48 hrs by Annexin V-FITC/PI staining based flow cytometric analysis (reference value: 1.63%); type: functional
MDA-MB-231 [19] = assay: Induction of apoptosis in human MDA-MB-231 cells assessed as viable cells at 20 uM incubated for 48 hrs by Annexin V-FITC/PI staining based flow cytometric analysis (reference value: 95.10%); type: functional; conditions: read-out: Activity
MDA-MB-231 [20] = assay: Induction of autophagy in human MDA-MB-231 cells assessed as autophagic lysosomes at 10 uM incubated for 48 hrs by transmission electron microscopic analysis; type: functional, cell-based
4T1 [21] = assay: Antitumor activity against mouse 4T1 cells implanted in female BALB/C mouse assessed as inhibition of tumor growth at 20 to 50 mg/kg, po administered every two days for 21 days; type: functional, organism-based; conditions: dose 20-50 mg/kg, time 21.0 day
4T1 [22] = assay: Antitumor activity against mouse 4T1 cells implanted in female BALB/C mouse assessed as inhibition of tumor growth at 20 to 50 mg/kg, iv administered every two days for 21 days; type: functional, organism-based; conditions: dose 20-50 mg/kg, time 21.0 day
4T1 [23] = assay: Antitumor activity against mouse 4T1 cells implanted in female BALB/C mouse assessed as inhibition of tumor weight at 20 mg/kg, po administered every two days for 21 days relative to control; type: functional, organism-based; conditions: time 21.0 day
4T1 [24] = assay: Antitumor activity against mouse 4T1 cells implanted in female BALB/C mouse assessed as inhibition of tumor weight at 50 mg/kg, po administered every two days for 21 days relative to control; type: functional, organism-based; conditions: time 21.0 day
[25] = Toxicity in female BALB/C mouse implanted with mouse 4T1 cells assessed as effect on body weight at 20 to 50 mg/kg, po administered every two days for 21 days; type: organism-based; conditions: in vivo, 504 h, dose 20-50 mg/kg, time 21 day
[26] = Toxicity in female BALB/C mouse implanted with mouse 4T1 cells assessed as effect on body weight at 20 to 50 mg/kg, iv administered every two days for 21 days; type: organism-based; conditions: in vivo, 504 h, dose 20-50 mg/kg, time 21 day
[27] = Toxicity in female BALB/C mouse implanted with mouse 4T1 cells assessed as spleen damage at 20 to 50 mg/kg, po administered every two days for 21 days by H and E staining based analysis; type: organism-based; conditions: in vivo, 504 h, dose 20-50 mg/kg, time 21 day
[28] = Toxicity in female BALB/C mouse implanted with mouse 4T1 cells assessed as lung damage at 20 to 50 mg/kg, po administered every two days for 21 days by H and E staining based analysis; type: organism-based; conditions: in vivo, 504 h, dose 20-50 mg/kg, time 21 day
[29] = Toxicity in female BALB/C mouse implanted with mouse 4T1 cells assessed as change in serum ALT level at 20 to 50 mg/kg, po administered every two days for 21 days; type: organism-based; conditions: in vivo, 504 h, dose 20-50 mg/kg, time 21 day
[30] = Toxicity in female BALB/C mouse implanted with mouse 4T1 cells assessed as change in serum AST level at 20 to 50 mg/kg, po administered every two days for 21 days; type: organism-based; conditions: in vivo, 504 h, dose 20-50 mg/kg, time 21 day
[31] = Toxicity in female BALB/C mouse implanted with mouse 4T1 cells assessed as change in serum LDH level at 20 to 50 mg/kg, iv administered every two days for 21 days; type: organism-based; conditions: in vivo, 504 h, dose 20-50 mg/kg, time 21 day
[32] = Toxicity in female BALB/C mouse implanted with mouse 4T1 cells assessed as change in RBC level at 20 to 50 mg/kg, iv administered every two days for 21 days by routine blood analysis; type: organism-based; conditions: in vivo, 504 h, dose 20-50 mg/kg, time 21 day
[33] = Toxicity in female BALB/C mouse implanted with mouse 4T1 cells assessed as effect on lymphocytes at 20 to 50 mg/kg, iv administered every two days for 21 days by routine blood analysis; type: organism-based; conditions: in vivo, 504 h, dose 20-50 mg/kg, time 21 day

Work on `CCC(=O)NC(n1cnc2c(Nc3cc(OC)c(OC)c(OC)c3)nc(N)nc21)C(Cl)(Cl)Cl` (centres undefined) yielded an IC50 (MCF7) of 3270 nM, an IC50 (MDA-MB-231 [1]) of 1430 nM and an Activity (MDA-MB-231 [2]) of 27.6%. The Activity (MDA-MB-231 [3]) was 40.1%, the Activity (MDA-MB-231 [4]) was 13.3% and the Activity (MDA-MB-231 [5]) was 45.7%. It also gave an Activity (MDA-MB-231 [6]) of 36.4%, an Activity (MDA-MB-231 [7]) of 12.5% and an Activity (MDA-MB-231 [8]) of 62.8%. For the same compound, the Activity (MDA-MB-231 [9]) was 8.6%, the Activity (MDA-MB-231 [10]) was 11.9% and the Activity (MDA-MB-231 [11]) was 29.4%. The Activity (MDA-MB-231 [12]) was “Active”, the Activity (MDA-MB-231 [13]) was “Dose-Dependent Effect” and the Activity (MDA-MB-231 [14]) was “Dose-Dependent Effect”. The Activity (MDA-MB-231 [15]) was 1.4%, the viability at 10 µM (MDA-MB-231 [16]) was 92.3% and the Activity (MDA-MB-231 [17]) was 4.54%. For the same compound, the Activity (MDA-MB-231 [18]) was 1.14%, the viability at 20 µM (MDA-MB-231 [19]) was 91.7% and the Activity (MDA-MB-231 [20]) was “Active”. The Activity (4T1 [21]) was “Active”, the Activity (4T1 [22]) was “Active” and the Activity (4T1 [23]) was “inactive”. For the same compound, the Activity (4T1 [24]) was “inactive”, the Activity [25] was “Non-Toxic” and the Activity [26] was “Non-Toxic”. For the same compound, the Activity [27] was “Non-Toxic”, the Activity [28] was “Non-Toxic” and the Activity [29] was “Non-Toxic”. The Activity [30] was “Non-Toxic”, the Activity [31] was “Non-Toxic” and the Activity [32] was “Non-Toxic”. For the same compound, the Activity [33] was “Non-Toxic”.
